Test results from US11135234B2, “Effective aminoglycoside antibiotic for multidrug-resistant bacteria” (MICROBIAL CHEMISTRY RESEARCH FOUNDATION, priority 2015, dated 2021).
Values after ≈ are worked out from the molar mass of the structure shown.

How the values were obtained:
P. aeruginosa MSC17707 = assay: MIC, agar plate dilution method, P. aeruginosa MSC17707; type: cell-based, Pseudomonas aeruginosa; conditions: Pseudomonas aeruginosa, MSC17707, P. aeruginosa MSC17707, AMK-resistant, read-out: minimal inhibitory concentration (MIC)
In short: (§1)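 Agar plate dilution per Japan Society of Chemotherapy standard; read-out = MIC in μg/mL.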

[1] = tested on: K. pneumoniae ATCC BAA-2146; assay: MIC, agar plate dilution method, K. pneumoniae ATCC BAA-2146; type: cell-based, Klebsiella pneumoniae; conditions: Klebsiella pneumoniae, ATCCBAA2146, K. pneumoniae ATCC BAA-2146, NDM-producing strain, read-out: minimal inhibitory concentration (MIC)
In short: as §1

[2] = tested on: A. baumannii ATCC BAA-1710; assay: MIC, agar plate dilution method, A. baumannii ATCC BAA-1710; type: cell-based, Acinetobacter baumannii; conditions: Acinetobacter baumannii, ATCCBAA1710, A. baumannii ATCC BAA-1710, MDRA, read-out: minimal inhibitory concentration (MIC)
In short: as §1

P. aeruginosa PAO1/GN315 = assay: MIC, agar plate dilution method, P. aeruginosa PAO1/GN315; type: cell-based, Pseudomonas aeruginosa; conditions: Pseudomonas aeruginosa, read-out: minimal inhibitory concentration (MIC), P. aeruginosa PAO1/GN315, AMK-resistant
In short: as §1

S. marcescens GN6944 = assay: MIC, agar plate dilution method, S. marcescens GN6944; type: cell-based, Serratia marcescens; conditions: Serratia marcescens, S. marcescens GN6944, GM-resistant, read-out: minimal inhibitory concentration (MIC)
In short: as §1

S. aureus RN4220 = assay: MIC, agar plate dilution method, S. aureus RN4220; type: cell-based, Staphylococcus aureus; conditions: Staphylococcus aureus, RN4220, S. aureus RN4220, Sensitive bacterium, read-out: minimal inhibitory concentration (MIC)
In short: as §1

S. marcescens TH-0447 = assay: MIC, agar plate dilution method, S. marcescens TH-0447; type: cell-based, Serratia marcescens; conditions: Serratia marcescens, TH0447, S. marcescens TH-0447, AMK-resistant, read-out: minimal inhibitory concentration (MIC)
In short: as §1

P. aeruginosa PAO1 = assay: MIC, agar plate dilution method, P. aeruginosa PAO1; type: cell-based, Pseudomonas aeruginosa; conditions: Pseudomonas aeruginosa, PAO1, P. aeruginosa PAO1, Sensitive bacterium, read-out: minimal inhibitory concentration (MIC)
In short: as §1

S. aureus MF490 = assay: MIC, agar plate dilution method, S. aureus MF490; type: cell-based, Staphylococcus aureus; conditions: Staphylococcus aureus, MRSA, read-out: minimal inhibitory concentration (MIC)
In short: as §1

P. aeruginosa MSC01035 = assay: MIC, agar plate dilution method, P. aeruginosa MSC01035; type: cell-based, Pseudomonas aeruginosa; conditions: Pseudomonas aeruginosa, P. aeruginosa MSC01035, ABK-resistant, read-out: minimal inhibitory concentration (MIC)
In short: as §1

E. faecium ATCC19434 = assay: MIC, agar plate dilution method, E. faecium ATCC19434; type: cell-based, Enterococcus faecium; conditions: Enterococcus faecium, ATCC19434, E. faecium ATCC19434, read-out: minimal inhibitory concentration (MIC)
In short: as §1

S. aureus RN4220/pMS520 = assay: MIC, agar plate dilution method, S. aureus RN4220/pMS520; type: cell-based, Staphylococcus aureus; conditions: Staphylococcus aureus, MRSA, read-out: minimal inhibitory concentration (MIC), S. aureus RN4220/pMS520, MRSA
In short: as §1

E. coli JM109/pMW218 = assay: MIC, agar plate dilution method, E. coli JM109/pMW218; type: cell-based, Escherichia coli; conditions: Escherichia coli, JM109/PMW218, E. coli JM109/pMW218, Sensitive bacterium, read-out: minimal inhibitory concentration (MIC)
In short: as §1

[3] = tested on: K. pneumoniae ATCC BAA-1705; assay: MIC, agar plate dilution method, K. pneumoniae ATCC BAA-1705; type: cell-based, Klebsiella pneumoniae; conditions: Klebsiella pneumoniae, ATCCBAA1705, K. pneumoniae ATCC BAA-1705, KPC-producing strain, read-out: minimal inhibitory concentration (MIC)
In short: as §1

Compound	MIC (P. aeruginosa MSC17707) [µg/mL]	MIC [1] [µg/mL]	MIC [2] [µg/mL]	MIC (P. aeruginosa PAO1/GN315) [µg/mL]	MIC (S. marcescens GN6944) [µg/mL]	MIC (S. aureus RN4220) [µg/mL]	MIC (S. marcescens TH-0447) [µg/mL]	MIC (P. aeruginosa PAO1) [µg/mL]	MIC (S. aureus MF490) [µg/mL]	MIC (P. aeruginosa MSC01035) [µg/mL]	MIC (E. faecium ATCC19434) [µg/mL]	MIC (S. aureus RN4220/pMS520) [µg/mL]	MIC (E. coli JM109/pMW218) [µg/mL]	MIC [3] [µg/mL]
CNC1C(O[C@H]2OC(C)[C@@H](N)[C@H](O)C2O)O[C@H]2CC(N)[C@@H](O[C@H]3CC[C@H](N)CC3N)OC2C1O (stereo partly drawn) [Compound R6, 5,6,6″-trideoxyapramycin]	16 (≈ 32.5 µM)	1 (≈ 2.03 µM)	8 (≈ 16.3 µM)	8 (≈ 16.3 µM)	4 (≈ 8.14 µM)	2 (≈ 4.07 µM)	8 (≈ 16.3 µM)	8 (≈ 16.3 µM)	8 (≈ 16.3 µM)	16 (≈ 32.5 µM)	16 (≈ 32.5 µM)	2 (≈ 4.07 µM)	1 (≈ 2.03 µM)	2 (≈ 4.07 µM)
CNC1C(O[C@H]2OC(CO)[C@@H](NC)[C@H](O)C2O)O[C@H]2CC(N)[C@@H](O[C@H]3CC(O)[C@H](N)CC3N)OC2C1O (stereo partly drawn) [Compound S1-a, 5-deoxy-4″-N-methylapramycin]	4 (≈ 7.44 µM)	1 (≈ 1.86 µM)	8 (≈ 14.9 µM)	4 (≈ 7.44 µM)	4 (≈ 7.44 µM)	2 (≈ 3.72 µM)	8 (≈ 14.9 µM)	4 (≈ 7.44 µM)	8 (≈ 14.9 µM)	4 (≈ 7.44 µM)	32 (≈ 59.5 µM)	2 (≈ 3.72 µM)	1 (≈ 1.86 µM)	1 (≈ 1.86 µM)
CNC1C(O[C@H]2OC(CO)[C@@H](NCCN)[C@H](O)C2O)O[C@H]2CC(N)[C@@H](O[C@H]3CC(O)[C@H](N)CC3N)OC2C1O (stereo partly drawn) [Compound S1-b, 4″-N-(2-aminoethyl)-5-deoxyapramycin]	4 (≈ 7.06 µM)	1 (≈ 1.76 µM)	4 (≈ 7.06 µM)	4 (≈ 7.06 µM)	4 (≈ 7.06 µM)	2 (≈ 3.53 µM)	8 (≈ 14.1 µM)	4 (≈ 7.06 µM)	4 (≈ 7.06 µM)	4 (≈ 7.06 µM)	8 (≈ 14.1 µM)	1 (≈ 1.76 µM)	0.5 (≈ 0.882 µM)	1 (≈ 1.76 µM)
CNC1C(O[C@H]2OC(CO)[C@@H](NCCCN)[C@H](O)C2O)O[C@H]2CC(N)[C@@H](O[C@H]3CC(O)[C@H](N)CC3N)OC2C1O (stereo partly drawn) [Compound S1-c, 4″-N-(3-aminopropyl)-5-deoxyapramycin]	8 (≈ 13.8 µM)	1 (≈ 1.72 µM)	8 (≈ 13.8 µM)	4 (≈ 6.89 µM)	8 (≈ 13.8 µM)	2 (≈ 3.44 µM)	8 (≈ 13.8 µM)	4 (≈ 6.89 µM)	4 (≈ 6.89 µM)	8 (≈ 13.8 µM)	8 (≈ 13.8 µM)	2 (≈ 3.44 µM)	1 (≈ 1.72 µM)	1 (≈ 1.72 µM)
CNC1C(O[C@H]2OC(CO)[C@@H](NC(CN)CN)[C@H](O)C2O)O[C@H]2CC(N)[C@@H](O[C@H]3CC(O)[C@H](N)CC3N)OC2C1O (stereo partly drawn) [Compound S1-d, 4″-N-(1,3-diaminopropan-2-yl)-5-deoxyapramycin]	4 (≈ 6.71 µM)	1 (≈ 1.68 µM)	8 (≈ 13.4 µM)	4 (≈ 6.71 µM)	4 (≈ 6.71 µM)	1 (≈ 1.68 µM)	8 (≈ 13.4 µM)	2 (≈ 3.36 µM)	4 (≈ 6.71 µM)	4 (≈ 6.71 µM)	16 (≈ 26.9 µM)	1 (≈ 1.68 µM)	1 (≈ 1.68 µM)	1 (≈ 1.68 µM)
CNC1C(O[C@H]2OC(CO)[C@@H](NC(=N)N)[C@H](O)C2O)O[C@H]2CC(N)[C@@H](O[C@H]3CC(O)[C@H](N)CC3N)OC2C1O (stereo partly drawn) [Compound S1-e, 4″-deamino-5-deoxy-4″-guanidinoapramycin]	8 (≈ 14.1 µM)	0.5 (≈ 0.884 µM)	4 (≈ 7.07 µM)	4 (≈ 7.07 µM)	4 (≈ 7.07 µM)	1 (≈ 1.77 µM)	4 (≈ 7.07 µM)	4 (≈ 7.07 µM)	4 (≈ 7.07 µM)	8 (≈ 14.1 µM)	4 (≈ 7.07 µM)	1 (≈ 1.77 µM)	0.5 (≈ 0.884 µM)	2 (≈ 3.54 µM)
